Laboratory results from ChEMBL document CHEMBL1153873, “Synthesis, antiarrhythmic and anticoagulant activities of novel thiazolo derivatives from methyl 2-(thiazol-2-ylcarbamoyl)acetate” (Eur J Med Chem, 2009).
The source made the active and inactive calls. No cut-off for these calls is given here.

Tests used:
[1] = Toxicity in rat; type: organism-based; conditions: in vivo
Oryctolagus cuniculus [2] = organism: Oryctolagus cuniculus; experiment: Stimulation of heparin cofactor-2-induced inhibition of alpha-thrombin in rabbit plasma assessed as [125I]-thrombin-heparin cofactor-2 complex formation by SDS-PAGE and autoradiography; type: cell-free
Rattus norvegicus = experiment: Antiarrhythmic activity in Ivanovas rat assessed as increase LD100 at 5 mg/kg, iv administered 5 mins before aconitine infusion; type: functional, Heart
Homo sapiens [3] = organism: Homo sapiens; experiment: Stimulation of antithrombin-3-induced inhibition of human alpha-thrombin at 0.2 to 2000 ug/mL
Oryctolagus cuniculus [4] = organism: Oryctolagus cuniculus; experiment: Stimulation of antithrombin-3-induced inhibition of alpha-thrombin in rabbit plasma assessed as [125I]-thrombin-antithrombin-3 complex formation by SDS-PAGE and autoradiography; type: cell-free
Oryctolagus cuniculus [5] = experiment: Effect on blood pressure in New Zealand rabbit assessed arterial blood pressure at 1 mg/kg, iv after 2 hrs; type: functional
Plasma [6] = experiment: Anticoagulant activity in human plasma assessed as increase in activated partial thromboplastin time; type: functional, cell-free
Homo sapiens [7] = organism: Homo sapiens; experiment: Stimulation of heparin cofactor-2-induced inhibition of human alpha-thrombin
Oryctolagus cuniculus [8] = experiment: Anticoagulant activity in New Zealand rabbit assessed as increase in activated partial thromboplastin time at 1 mg/kg, po after 4 hrs relative to untreated control; type: functional
Oryctolagus cuniculus [9] = experiment: Anticoagulant activity in New Zealand rabbit assessed as increase in activated partial thromboplastin time at 1 mg/kg, iv relative to untreated control; type: functional
Oryctolagus cuniculus [10] = experiment: Anticoagulant activity in New Zealand rabbit assessed as increase in activated partial thromboplastin time at 1 mg/kg, iv after 120 mins; type: functional, organism-based; parameters: dose 1 mg/kg
Oryctolagus cuniculus [11] = experiment: Antithrombotic effect in New Zealand rabbit assessed as incidence of complete arterial occlusion at 3 mg/kg, po relative to control; type: functional
Oryctolagus cuniculus [12] = experiment: Increase in bleeding time in New Zealand rabbit at 1 mg/kg, po relative to control; type: organism-based; parameters: dose 1 mg/kg, route oral; conditions: in vivo
Plasma [13] = experiment: Anticoagulant activity in rabbit plasma assessed as increase in activated partial thromboplastin time; type: functional, cell-free; conditions: Oryctolagus cuniculus
Oryctolagus cuniculus [14] = experiment: Antithrombotic effect in New Zealand rabbit assessed as time duration to occlusion at 3 mg/kg, po relative to control; type: functional
Oryctolagus cuniculus [15] = experiment: Anticoagulant activity in New Zealand rabbit assessed as increase in activated partial thromboplastin time at 1 mg/kg, po after 8 hrs; type: functional, organism-based; parameters: dose 1 mg/kg

In the case of `O=C(CC(=O)NN1C(=O)c2c(Cl)c(Cl)c(Cl)c(Cl)c2C1=O)Nc1nccs1`, the LD50 [1] is reported as 443 mg/kg, the Activity (Oryctolagus cuniculus [2]) is reported as “Active” and the Activity (Rattus norvegicus) is reported as 87.1%. For the same compound, the Activity (Homo sapiens [3]) was “inactive” and the Activity (Oryctolagus cuniculus [4]) was “inactive”.

In the case of `COC(=O)/C(C(=O)Nc1nccs1)=C(/S)Nc1ccccc1`, the LD50 [1] is reported as 543 mg/kg, the Activity (Oryctolagus cuniculus [2]) is reported as “Active” and the Activity (Rattus norvegicus) is reported as 80.2%. For the same compound, the Activity (Homo sapiens [3]) was “inactive” and the Activity (Oryctolagus cuniculus [4]) was “inactive”.

In the case of `O=C(CC(=O)Nc1nccs1)NNC(=S)[S-].[K+]` [HYDRAZINECARBODITHIONIC ACID POTASSIUM SALT], the LD50 [1] is reported as 723 mg/kg, the Activity (Oryctolagus cuniculus [2]) is reported as “Active” and the Activity (Rattus norvegicus) is reported as 90.15%. For the same compound, the Activity (Homo sapiens [3]) was “inactive” and the Activity (Oryctolagus cuniculus [4]) was “inactive”.

With `NNC(=O)CC(=O)Nc1nccs1` the LD50 [1] was 736 mg/kg, the Activity (Oryctolagus cuniculus [2]) was “Active” and the Activity (Rattus norvegicus) was 87.5%. For the same compound, the Activity (Homo sapiens [3]) was “inactive” and the Activity (Oryctolagus cuniculus [4]) was “inactive”.

With `COC(=O)/C(C(=O)Nc1nccs1)=C1/SC(C(C)=O)=NN1c1ccc(S(=O)(=O)N2C(=O)c3c(Cl)c(Cl)c(Cl)c(Cl)c3C2=O)cc1` the LD50 [1] was 564 mg/kg, the Activity (Oryctolagus cuniculus [2]) was “Active” and the Activity (Rattus norvegicus) was 88%. The Activity (Homo sapiens [3]) was “inactive” and the Activity (Oryctolagus cuniculus [4]) was “inactive”.

For `COC(=O)/C(C(=O)Nc1nccs1)=C1/SCC(=O)N1c1ccccc1`, the LD50 [1] was 444 mg/kg, the Activity (Oryctolagus cuniculus [2]) was “Active” and the Activity (Rattus norvegicus) was 83%. The Activity (Homo sapiens [3]) was “inactive” and the Activity (Oryctolagus cuniculus [4]) was “inactive”.

With `CCOC(=O)c1nn(-c2ccc(Br)cc2)/c(=N/NC(=O)CC(=O)Nc2nccs2)s1` the LD50 [1] was 342 mg/kg, the Activity (Oryctolagus cuniculus [2]) was “Active” and the Activity (Rattus norvegicus) was 80.1%. For the same compound, the Activity (Homo sapiens [3]) was “inactive” and the Activity (Oryctolagus cuniculus [4]) was “inactive”.

In the case of `O=C(CC(=O)Nn1c(-c2ccccc2)csc1=S)Nc1nccs1`, the LD50 [1] is reported as 292 mg/kg, the Activity (Oryctolagus cuniculus [2]) is reported as “Active” and the Activity (Rattus norvegicus) is reported as 90.6%. For the same compound, the Activity (Homo sapiens [3]) was “inactive” and the Activity (Oryctolagus cuniculus [4]) was “inactive”.

With `COC(=O)/C(C(=O)Nc1nccs1)=C1/SC=C(c2ccccc2)N1c1ccccc1` the LD50 [1] was 724 mg/kg, the Activity (Oryctolagus cuniculus [2]) was “Active” and the Activity (Rattus norvegicus) was 88%. The Activity (Homo sapiens [3]) was “inactive” and the Activity (Oryctolagus cuniculus [4]) was “inactive”.

For `COC(=O)/C(C(=O)Nc1nccs1)=C1/SC(C(C)=O)=C(C)N1c1ccccc1`, the LD50 [1] was 674 mg/kg, the Activity (Oryctolagus cuniculus [2]) was “Active” and the Activity (Rattus norvegicus) was 88.8%. For the same compound, the Activity (Homo sapiens [3]) was “inactive” and the Activity (Oryctolagus cuniculus [4]) was “inactive”.

In the case of `CC(=O)c1nn(-c2ccc(S(N)(=O)=O)cc2)/c(=N/NC(=O)CC(=O)Nc2nccs2)s1`, the LD50 [1] is reported as 546 mg/kg, the Activity (Oryctolagus cuniculus [2]) is reported as “Active” and the Activity (Rattus norvegicus) is reported as 85%. The Activity (Homo sapiens [3]) was “inactive” and the Activity (Oryctolagus cuniculus [4]) was “inactive”.

In the case of `O=C(CC(=O)NN1C(=O)c2ccc3c4c(ccc(c24)C1=O)C(=O)N(NC(=O)CC(=O)Nc1nccs1)C3=O)Nc1nccs1`, the Activity (Oryctolagus cuniculus [5]) is reported as 67.4 mmHg, the Activity (Plasma [6]) is reported as “Dose-dependent effect” and the inhibition (Homo sapiens [7]) is reported as “Active”. The LD50 [1] was 445 mg/kg, the “fold change (FC)” value (Oryctolagus cuniculus [8]) was 3 and the “fold change (FC)” value (Oryctolagus cuniculus [9]) was 7. For the same compound, the Activity (Oryctolagus cuniculus [10]) was “Active”, the Activity (Oryctolagus cuniculus [2]) was “Active” and the Activity (Oryctolagus cuniculus [11]) was 24.57%. For the same compound, the “fold change (FC)” value (Oryctolagus cuniculus [12]) was 4.33, the Activity (Plasma [13]) was “Dose-dependent effect” and the Activity (Rattus norvegicus) was 85%. The Activity (Homo sapiens [3]) was “inactive”, the “fold change (FC)” value (Oryctolagus cuniculus [14]) was 12 and the Activity (Oryctolagus cuniculus [4]) was “inactive”. The Activity (Oryctolagus cuniculus [15]) was “Active”.

For `O=C(CC(=O)Nn1c(=O)c2cc3c(=O)n(NC(=O)CC(=O)Nc4nccs4)c(=O)c3cc2c1=O)Nc1nccs1`, the Activity (Oryctolagus cuniculus [5]) was 68.12 mmHg, the Activity (Plasma [6]) was “Dose-dependent effect” and the inhibition (Homo sapiens [7]) was “Active”. The LD50 [1] was 336 mg/kg, the “fold change (FC)” value (Oryctolagus cuniculus [8]) was 2 and the “fold change (FC)” value (Oryctolagus cuniculus [9]) was 4. The Activity (Oryctolagus cuniculus [10]) was “Active”, the Activity (Oryctolagus cuniculus [2]) was “Active” and the Activity (Oryctolagus cuniculus [11]) was 42.85%. The “fold change (FC)” value (Oryctolagus cuniculus [12]) was 3.28, the Activity (Plasma [13]) was “Dose-dependent effect” and the Activity (Rattus norvegicus) was 86%. The Activity (Homo sapiens [3]) was “inactive”, the “fold change (FC)” value (Oryctolagus cuniculus [14]) was 10 and the Activity (Oryctolagus cuniculus [4]) was “inactive”. The Activity (Oryctolagus cuniculus [15]) was “Active”.

With `CCOC(=O)C1=NN(c2ccc(Cl)cc2)/C(=C(/C(=O)Nc2nccs2)C(=O)OC)S1` the LD50 [1] was 435 mg/kg, the Activity (Oryctolagus cuniculus [2]) was “Active” and the Activity (Rattus norvegicus) was 84%. The Activity (Homo sapiens [3]) was “inactive” and the Activity (Oryctolagus cuniculus [4]) was “inactive”.

For `COC(=O)/C(C(=O)Nc1nccs1)=C1/SC(C(C)=O)=NN1c1ccc(S(N)(=O)=O)cc1`, the LD50 [1] was 456 mg/kg, the Activity (Oryctolagus cuniculus [2]) was “Active” and the Activity (Rattus norvegicus) was 90.9%. The Activity (Homo sapiens [3]) was “inactive” and the Activity (Oryctolagus cuniculus [4]) was “inactive”.

For `COC(=O)/C(C(=O)Nc1nccs1)=C1/SC=C(C)N1c1ccccc1`, the LD50 [1] was 434 mg/kg, the Activity (Oryctolagus cuniculus [2]) was “Active” and the Activity (Rattus norvegicus) was 90.3%. The Activity (Homo sapiens [3]) was “inactive” and the Activity (Oryctolagus cuniculus [4]) was “inactive”.
